Reference: patent US20240002429A1, “PRODRUG OF 5a-HYDROXY-6ß-[2-(1H-IMIDAZOL-4-YL)ETHYLAMINO]CHOLESTAN-3ß-OL AND PHARMACEUTICAL COMPOSITIONS COMPRISING SAME FOR USE IN THE TREATMENT OF CANCER” (priority 2020, published 2024)

Columns and labels:
[1] = Pharmacokinetic study of DX117 (LC/MS in plasma); assay type: in vivo; conditions: rat, 50 mg/kg, administered compound assayed
Source text: (§1) The following study is a determination by LC/MS in plasma of the various molecules over 3 days (11 measurement points at the end). The graphs are always presented in comparison with DX101, which is the reference. […]

[2] = Pharmacokinetic study of DX121 (LC/MS in plasma); assay type: in vivo; conditions: rat, oral 50 mg/kg, administered compound assayed
Source text: as §1

[3] = tested on: MCF-7 mammary tumor cells; assay: Morphology of MCF-7 cells under inverted microscope; assay type: cell-based
Protocol: (§2) A cell viability test was carried out on MCF-7 mammary tumor cells (Michigan Cancer Foundation-7) […] (ER(+) cells) containing receptors for the hormone estrogen.
(§3) The MCF-7 cells are in a cell culture medium identical to example 14 and are seeded in 12-well plates at 50000 cells per well for 24 h. 24 hours after seeding, the cells are treated with the solvate vehicle comprising water and ethanol with an ethanol ratio 1‰ and comprising 5α-hydroxy-6β-[2-(1H-imidazol-4-yl)-ethylamino]-cholestan-3β-yl propionate or 5α-hydroxy-6β-[2-(1H-imidazol-4-yl)-ethylamino]-cholestan-3β-ol at 1, 2.5 or 5 μM. The cells are observed in an inverted microscope and photographed with the microscope camera at 24 h and 48 h. The morphological changes of the cells at 1 μM are very slight.
In this test: • The white vesicles reflect cell death by cytotoxic autophagy; • The cells that become rounded reflect cell death; • The cells that become detached reflect a cytotoxic effect; • The adherent cells reflect cell survival; • The supernatant cells reflect cell death; and • The refractive cells reflect cell death.

[4] = tested on: MCF-7 mammary tumor cells; assay: cells; assay type: cell-based; conditions: Homo sapiens, MCF7, 48 h, read-out: cellular viability relative to the control group
Protocol: as §2, §3
Following these observations, a cell viability test is measured by MTT labeling at 48 hours. This test is based on the use of the tetrazolium salt MTT (3-(4,5-dimethylthiazol-2-yl)-2,5-diphenyltetrazolium bromide). Tetrazolium is reduced by mitochondrial succinate dehydrogenase of active living cells, in formazan, precipitate of violet color. The amount of precipitate formed is proportional to the quantity of living cells but also to the metabolic activity of each cell. […] After 48 hours, the medium is aspirated, the cells are washed with phosphate-buffered saline (PBS) and then incubated with MTT (0.5 mg/ml in PBS) for about 2 hours. The MTT solution is aspirated and then the violet crystals are dissolved in dimethylsulfoxide (DMSO). The OD (optical density) is measured at 540 nm.
The control group is carried out similarly to the study groups without adding the molecules studied in the present text. Compared to the control, a decrease is measured, dependent on the dose of […], in cellular viability in MTT for 5α-hydroxy-6β-[2-(1H-imidazol-4-yl)-ethylamino]-cholestan-3β-yl propionate and 5α-hydroxy-6β-[2-(1H-imidazol-4-yl)-ethylamino]-cholestan-3β-ol.

[5] = tested on: BT-474 human mammary tumor cells; assay: Cytotoxicity on BT-474 cells, trypan blue; assay type: cell-based; conditions: BT-474, trypan blue, 48 h
Protocol: The cellular viability tests were also carried out on BT-474 human mammary tumor cells (characterized as being positive triples HER2+, ER+, PR+). The BT-474 cells are in a cell culture medium identical to the preceding example and are seeded in 24-well plates at 70 000 cells per well, for determination of cellular viability using trypan blue, or in 96-well plates at 13 000 cells per well for determination of cellular viability using the MTT or LDH assay. After 96 hours (h) of culture in normal conditions, i.e. in an incubator at a temperature of 37° C. at 5% CO2, the BT-474 cells are treated for 48 h with DX101, DX107, and DX113 at 100 nM, 1 μM, 2.5 μM and 10 μM. A control is also carried out using the protocol described above but without treatment with the molecules DX101, DX107, DX113, DX117, DX119, DX121 or DX131.
After trypsin digestion for 10 minutes at 37° C., cell survival was quantified, also by a trypan blue assay with automatic counting with the Biorad TC20 equipment (TC20™ Automated Cell Counter). The trypan blue assay is based on the cell membrane integrity, which is broken in the dead cells. Trypan blue stains the dead cells blue. The Biorad TC20 cell counter counts the proportion of blue cells and non-blue cells, relative to the cell percentages. The percentage viability is then determined in each well relative to the untreated cells and the IC50 is determined as explained in the preceding example. The percentage viability of the BT-474 cells was determined using the MTT and LDH assay, carried out as described in the preceding example.

Question: Which Concentration max [1] does the source give for `CC(C)CCC[C@@H](C)[C@H]1CC[C@H]2[C@@H]3C[C@@H](NCCc4c[nH]cn4)[C@@]4(O)C[C@@H](O)CC[C@]4(C)[C@H]3CC[C@]12C` [DX101, 5α-hydroxy-6β-[2-(1H-imidazol-4-yl)-ethylamino]-cholestan-3β-ol, reference compound] here?
Answer: Its Concentration max is 150 nM.

Question: What about the Area under curve ([1]; 0-72 h) of the same compound?
Answer: Its Area under curve is 3019.

Question: And the Concentration max [2]?
Answer: Its Concentration max is 150 nM.

Question: And the Area under curve ([2]; 0-72 h)?
Answer: Its Area under curve is 3019.

Question: What about the “Morphological observations at 24 hours” value ([3]; MCF-7, 1 μM, 24 h) of the same compound?
Answer: Its value is “Some white vesicles”.

Question: And the “Observations at 48 hours” value ([3]; MCF-7, 5 μM, 48 h)?
Answer: Its value is “All the cells are supernatant”.

Question: And the viability at 2.5 µM [4]?
Answer: Its viability at 2.5 µM is about 60%.

Question: What about the viability at 5 µM [4] of the same compound?
Answer: Its viability at 5 µM is about 18%.

Question: What does the source list for `CCC(=O)O[C@H]1CC[C@]2(C)[C@H]3CC[C@]4(C)[C@@H]([C@H](C)CCCC(C)C)CC[C@H]4[C@@H]3C[C@@H](NCCc3c[nH]cn3)[C@@]2(O)C1` [DX107, 5α-hydroxy-6β-[2-(1H-imidazol-4-yl)ethylamino]cholestan-3β-yl propionate]?
Answer: viability at 2.5 µM [4]: ~95%; viability at 5 µM [4]: ~18%; Mean LogIC50 (±SEM) ([5]; log of IC50 in μM): 0.66 ± 0.04; IC50 ([5]; Homo sapiens): 4.58 µM
